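96-well plates; 48 h exposure; 5 concentrations. Endpoints by linear interpolation between flanking doses. Not reached: highest tested concentration assigned. At the GI50, growth is halved. TGI denotes the concentration required for complete inhibition of growth.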
Experiments:
Assay in all cases: DTP human tumour cell line panel, 48 h
HCT-116 colon = system: HCT-116 colon
SK-MEL-2 melanoma = system: SK-MEL-2 melanoma
M14 melanoma = system: M14 melanoma
SW-620 colon = system: SW-620 colon
MALME-3M melanoma = system: MALME-3M melanoma
SF-539 CNS = system: SF-539 CNS
COLO 205 colon = system: COLO 205 colon
UACC-257 melanoma = system: UACC-257 melanoma
EKVX NSCLC = system: EKVX NSCLC
OVCAR-4 ovarian = system: OVCAR-4 ovarian

SMILES	GI50 (HCT-116 colon)	TGI (HCT-116 colon)	GI50 (SK-MEL-2 melanoma)	TGI (SK-MEL-2 melanoma)	GI50 (M14 melanoma)	TGI (M14 melanoma)	GI50 (SW-620 colon)	TGI (SW-620 colon)	GI50 (MALME-3M melanoma)	TGI (MALME-3M melanoma)	GI50 (SF-539 CNS)	TGI (SF-539 CNS)	GI50 (COLO 205 colon)	TGI (COLO 205 colon)	GI50 (UACC-257 melanoma)	TGI (UACC-257 melanoma)	GI50 (EKVX NSCLC)	TGI (EKVX NSCLC)	GI50 (OVCAR-4 ovarian)	TGI (OVCAR-4 ovarian)
O=C(N/N=C/c1ccccc1O)c1ccccc1	0.309 µM	5.19 µM	> 100 µM	> 100 µM	1.75 µM	15.3 µM	2.84 µM	> 100 µM	4.26 µM	46.7 µM	3.19 µM	66.8 µM	0.75 µM	> 100 µM	3.47 µM	37.1 µM	2 µM	> 100 µM	0.725 µM	> 100 µM
O=c1oc2ccccc2[n+]([O-])c1-c1ccccc1		> 100 µM		> 100 µM		> 100 µM		> 100 µM		> 100 µM		> 100 µM		> 100 µM		> 100 µM		> 100 µM		> 100 µM
CCCCN(CC)CC(C(C)=O)c1c(O)c2ccccc2oc1=O (stereo not given)		> 100 µM		> 100 µM		> 100 µM		> 100 µM		> 100 µM		> 100 µM		> 100 µM		> 100 µM		> 100 µM		> 100 µM
CCCCn1c(-c2ccc(C(=O)O/N=C(\N)c3ccc4c(c3)OCO4)cc2)nc(-c2ccccc2)c1-c1ccccc1	1.7 µM	3.66 µM	4.19 µM	> 100 µM	2.85 µM	17.5 µM	3.81 µM	> 100 µM	1.78 µM	4.3 µM	3 µM	10.2 µM	2.69 µM	11 µM	6.43 µM	> 100 µM	2.07 µM	7.74 µM	3.5 µM	> 100 µM
C=C(C)C1C/C=C(/C)CCCC2(CCC3=C(CC(C(=C)C)C/C=C(/C)CCC3)O2)C(=O)C1 (stereo not given)		> 100 µM		> 100 µM		> 100 µM		> 100 µM		> 100 µM		> 100 µM		> 100 µM		> 100 µM		> 100 µM		> 100 µM
O=C(O)[C@H](c1ccccc1)[C@@H](C(=O)O)c1ccccc1		> 100 µM		> 100 µM		> 100 µM		> 100 µM		> 100 µM		> 100 µM		> 100 µM		> 100 µM		> 100 µM		> 100 µM
C=C1C(=O)O[C@H]2[C@H]1CC/C(C=Nc1c(N)cc(C(F)(F)F)cc1Br)=C\CC[C@@]1(C)O[C@@H]21	1.11 µM	2.41 µM	1.63 µM	3.47 µM	1.71 µM	3.55 µM	1.53 µM	3.71 µM	1.71 µM	3.34 µM	1.51 µM	2.87 µM	1.6 µM	3.16 µM	1.64 µM	3.61 µM	1.84 µM	5.1 µM	1.57 µM	3.45 µM
O=C(/C=C/c1ccccc1)CC(=O)CCC(=O)Nc1ccc(Cl)cc1		> 100 µM		> 100 µM		> 100 µM		> 100 µM		> 100 µM		> 100 µM		> 100 µM		> 100 µM		> 100 µM		> 100 µM
Nc1ccc(/C=C/C(=O)NCc2cc3cc(-c4ccc(C(=O)N5CCC(F)(F)CC5)cc4)cc(-c4ccc(F)cc4)c3o2)cn1	0.0491 µM	> 100 µM	> 100 µM	> 100 µM	0.459 µM	> 55.8 µM	0.0571 µM	> 100 µM	> 100 µM	> 100 µM	0.118 µM	> 100 µM	0.327 µM	> 62.9 µM	> 100 µM	> 100 µM	> 100 µM	> 100 µM	> 71.5 µM	> 100 µM
CCOC(=O)C(NC(=O)c1nc[nH]c1[N+](=O)[O-])C(C)C (stereo not given)		> 100 µM		> 100 µM		> 100 µM		> 100 µM		> 100 µM		> 100 µM		> 100 µM		> 100 µM		> 100 µM		> 100 µM
COC(=O)C1(C)Cc2cc(OC(C)=O)c(OC(C)=O)cc2N1 (stereo not given)	3.96 µM	15.5 µM	5.92 µM	17.9 µM	15.6 µM	54.4 µM	8.83 µM	28.7 µM	3.18 µM	15.4 µM	15.4 µM	33.2 µM	6.49 µM	> 40.9 µM	1.68 µM	11.4 µM	15.7 µM	49 µM	9.34 µM	22.9 µM
